Results from ChEMBL document CHEMBL3046801, “Synthesis of 2-R1-2-(4-(2-fluoroethoxy)benzamido)acetate as potential PET imaging agents” (Med Chem Res, 2012).

Tests used:
Lung [1] = test: Biodistribution in tumor bearing Mus musculus KM (mouse) lung at 3.7 MBq, iv measured at 5 min by microPET imaging analysis; format: ADME, organism-based; settings: in vivo
Kidney [2] = test: Biodistribution in tumor bearing Mus musculus KM (mouse) kidney at 3.7 MBq, iv measured at 15 min by microPET imaging analysis; format: ADME, organism-based; settings: in vivo, 0.25 h
Muscle tissue [3] = test: Biodistribution in tumor bearing Mus musculus KM (mouse) muscle at 3.7 MBq, iv measured at 60 min by microPET imaging analysis; format: ADME, organism-based; settings: in vivo, 1 h
Heart [4] = test: Biodistribution in tumor bearing Mus musculus KM (mouse) heart at 3.7 MBq, iv measured at 60 min by microPET imaging analysis; format: ADME, organism-based; settings: in vivo, 1 h
[5] = Metabolic stability in serum after 1 hr by HPLC analysis; format: ADME
Blood = test: Biodistribution in tumor bearing Mus musculus KM (mouse) blood at 3.7 MBq, iv measured at 15 min by microPET imaging analysis; format: ADME, organism-based; settings: in vivo, 0.25 h
Spleen [6] = test: Biodistribution in tumor bearing Mus musculus KM (mouse) spleen at 3.7 MBq, iv measured at 60 min by microPET imaging analysis; format: ADME, organism-based; settings: in vivo, 1 h
Kidney [7] = test: Biodistribution in tumor bearing Mus musculus KM (mouse) kidney at 3.7 MBq, iv by microPET imaging analysis; format: ADME, organism-based; settings: in vivo, TDE = time-dependent effect
Brain [8] = test: Biodistribution in tumor bearing Mus musculus KM (mouse) brain at 3.7 MBq, iv measured at 5 min by microPET imaging analysis; format: ADME, organism-based; settings: in vivo
Kidney [9] = test: Biodistribution in tumor bearing Mus musculus KM (mouse) kidney at 3.7 MBq, iv measured at 120 min by microPET imaging analysis; format: ADME, organism-based; settings: in vivo, 2 h
Lung [10] = test: Biodistribution in tumor bearing Mus musculus KM (mouse) lung at 3.7 MBq, iv measured at 15 min by microPET imaging analysis; format: ADME, organism-based; settings: in vivo, 0.25 h
Heart [11] = test: Biodistribution in tumor bearing Mus musculus KM (mouse) heart at 3.7 MBq, iv measured at 5 min by microPET imaging analysis; format: ADME, organism-based; settings: in vivo
Brain [12] = test: Biodistribution in tumor bearing Mus musculus KM (mouse) brain at 3.7 MBq, iv by microPET imaging analysis; format: ADME, organism-based; settings: in vivo, TDE = time-dependent effect
Kidney [13] = test: Biodistribution in tumor bearing Mus musculus KM (mouse) kidney at 3.7 MBq, iv measured at 60 min by microPET imaging analysis; format: ADME, organism-based; settings: in vivo, 1 h
Spleen [14] = test: Biodistribution in tumor bearing Mus musculus KM (mouse) spleen at 3.7 MBq, iv measured at 5 min by microPET imaging analysis; format: ADME, organism-based; settings: in vivo
[15] = Chemical stability in sodium chloride up to 2 hr by HPLC analysis; format: physicochemical
Muscle tissue [16] = test: Biodistribution in tumor bearing Mus musculus KM (mouse) muscle at 3.7 MBq, iv measured at 5 min by microPET imaging analysis; format: ADME, organism-based; settings: in vivo
Spleen [17] = test: Biodistribution in tumor bearing Mus musculus KM (mouse) spleen at 3.7 MBq, iv measured at 30 min by microPET imaging analysis; format: ADME, organism-based; settings: in vivo, 0.5 h
Brain [18] = test: Biodistribution in tumor bearing Mus musculus KM (mouse) brain at 3.7 MBq, iv measured at 120 min by microPET imaging analysis; format: ADME, organism-based; settings: in vivo, 2 h
Heart [19] = test: Biodistribution in tumor bearing Mus musculus KM (mouse) heart at 3.7 MBq, iv by microPET imaging analysis; format: ADME, organism-based; settings: in vivo, TDE = time-dependent effect
Heart [20] = test: Biodistribution in tumor bearing Mus musculus KM (mouse) heart at 3.7 MBq, iv measured at 15 min by microPET imaging analysis; format: ADME, organism-based; settings: in vivo, 0.25 h
Brain [21] = test: Biodistribution in tumor bearing Mus musculus KM (mouse) brain at 3.7 MBq, iv measured at 30 min by microPET imaging analysis; format: ADME, organism-based; settings: in vivo, 0.5 h

Which results are given for `COC(=O)CNC(=O)c1ccc(OCC[18F])cc1` [[18F]FEBA]?
Drug uptake (Lung [1]): 5.09 % ID/g; Drug uptake (Kidney [2]): 4.07 % ID/g; Drug uptake (Muscle tissue [3]): 0.53 % ID/g; Drug uptake (Heart [4]): 0.91 % ID/g; Stability [5]: Stable; Drug uptake (Blood): 2.17 % ID/g; Drug uptake (Spleen [6]): 0.64 % ID/g; Drug uptake (Kidney [7]): tde; Drug uptake (Brain [8]): 1.51 % ID/g; Drug uptake (Kidney [9]): 0.65 % ID/g; Drug uptake (Lung [10]): 1.69 % ID/g; Drug uptake (Heart [11]): 2.64 % ID/g; Drug uptake (Brain [12]): tde; Drug uptake (Kidney [13]): 0.97 % ID/g; Drug uptake (Spleen [14]): 2.04 % ID/g; Stability [15]: Stable; Drug uptake (Muscle tissue [16]): 2.02 % ID/g; Drug uptake (Spleen [17]): 0.79 % ID/g; Drug uptake (Brain [18]): 0.6 % ID/g; Drug uptake (Heart [19]): tde; Drug uptake (Heart [20]): 1.93 % ID/g; Drug uptake (Brain [21]): 0.51 % ID/g
